Measured values as given in US8952157B2, “Apoptosis-inducing agents for the treatment of cancer and immune and autoimmune diseases” (AbbVie Inc., priority 2008, dated 2015).
pKi: −log10 of the molar value. Where two headings read alike, the source gives them in different places.

Molecular target: GST-Bcl-2 (Homo sapiens (Human), UniProt P10415)
Test: Time Resolved-Fluorescence Resonance Energy Transfer (TR-FRET) Bcl-2 binding assay
Method in brief: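 Competition TR-FRET: GST-Bcl-2 with fluorescent Bak peptide probe and Tb-anti-GST antibody, compounds serially diluted from 50 μM (2× start, 10% DMSO).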

[1] = GST-Bcl-2 1 nM, F-Bak peptide probe 100 nM, Tb-anti-GST antibody 1 nM, Ki by Wang's equation

GST-Bcl-2, sequence (P10415 whole entry): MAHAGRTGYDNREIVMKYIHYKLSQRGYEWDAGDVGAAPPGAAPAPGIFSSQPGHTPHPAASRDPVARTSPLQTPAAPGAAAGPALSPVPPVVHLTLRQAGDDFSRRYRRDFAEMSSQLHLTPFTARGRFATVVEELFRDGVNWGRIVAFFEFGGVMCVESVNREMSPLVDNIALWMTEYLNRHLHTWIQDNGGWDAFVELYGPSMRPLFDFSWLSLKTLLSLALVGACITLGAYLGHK

In the case of `CN1CCC(Nc2ccc(S(=O)(=O)NC(=O)c3ccc(N4CCN(CC5=C(c6ccc(Cl)cc6)CC(C)(C)CC5)CC4)cc3Oc3cc4cc[nH]c4cc3F)cc2[N+](=O)[O-])CC1` [Example 154, 4-(4-{[2-(4-chlorophenyl)-4,4-dimethylcyclohex-1-en-1-yl]methyl}piperazin-1-yl)-2-[(6-fluoro-1H-indol-5-yl)oxy]-N-({4-[(1-methylpiperidin-4-yl)amino]-3-nitrophenyl}sulfonyl)benzamide], the pKi [1] was 10.92.

With `CC1(C)CCC(CN2CCN(c3ccc(C(=O)NS(=O)(=O)c4ccc(OCC5(F)CCN(C(CF)CF)CC5)c([N+](=O)[O-])c4)c(Oc4cnc(N)c(Cl)c4)c3)CC2)=C(c2ccc(Cl)cc2)C1` [Example 371, 2-[(6-amino-5-chloropyridin-3-yl)oxy]-4-(4-{[2-(4-chlorophenyl)-4,4-dimethylcyclohex-1-en-1-yl]methyl}piperazin-1-yl)-N-{[4-({4-fluoro-1-[2-fluoro-1-(fluoromethyl)ethyl]piperidin-4-yl}methoxy)-3-nitrophenyl]sulfonyl}benzamide] the pKi [1] was > 11.00.

With `CN1CCC(Nc2ccc(S(=O)(=O)NC(=O)c3ccc(N4CCN(CC5=C(c6ccc(Cl)cc6)CC(C)(C)CC5)CC4)cc3Oc3cccc(O)c3Cl)cc2[N+](=O)[O-])CC1` [Example 171, 2-(2-chloro-3-hydroxyphenoxy)-4-(4-{[2-(4-chlorophenyl)-4,4-dimethylcyclohex-1-en-1-yl]methyl}piperazin-1-yl)-N-({4-[(1-methylpiperidin-4-yl)amino]-3-nitrophenyl}sulfonyl)benzamide] the pKi [1] was 10.18.

In the case of `O=C(NS(=O)(=O)c1ccc(NCC2CCOCC2)c([N+](=O)[O-])c1)c1ccc(N2CCN(Cc3ccccc3-c3ccc(Cl)cc3)CC2)cc1Oc1cccc([N+](=O)[O-])c1` [Example 8, 4-(4-((4′-chloro-1,1′-biphenyl-2-yl)methyl)piperazin-1-yl)-2-(3-nitrophenoxy)-N-((3-nitro-4-((tetrahydro-2H-pyran-4-ylmethyl)amino)phenyl)sulfonyl)benzamide], the pKi [1] was 8.46.

With `Nc1ccc(Oc2cc(N3CCN(Cc4ccccc4-c4ccc(Cl)cc4)CC3)ccc2C(=O)NS(=O)(=O)c2ccc(NCC3CCOCC3)c([N+](=O)[O-])c2)cc1` [Example 18, 2-(4-aminophenoxy)-4-(4-((4′-chloro-1,1′-biphenyl-2-yl)methyl)piperazin-1-yl)-N-((3-nitro-4-((tetrahydro-2H-pyran-4-ylmethyl)amino)phenyl)sulfonyl)benzamide] the pKi [1] was 8.60.

With `CC1(C)CC(c2ccc(Cl)cc2)=C(CN2CCN(c3ccc(C(=O)NS(=O)(=O)c4ccc(N[C@H]5CC[C@H](N6CCOCC6)CC5)c([N+](=O)[O-])c4)c(Oc4cc5cc[nH]c5cc4Cl)c3)CC2)CO1` [Example 294, Trans-2-[(6-chloro-1H-indol-5-yl)oxy]-4-(4-{[4-(4-chlorophenyl)-6,6-dimethyl-5,6-dihydro-2H-pyran-3-yl]methyl}piperazin-1-yl)-N-({4-[(4-morpholin-4-ylcyclohexyl)amino]-3-nitrophenyl}sulfonyl)benzamide] the pKi was 9.90.

With `CN(C)C(=O)COc1cccc(Oc2cc(N3CCN(Cc4ccccc4-c4ccc(Cl)cc4)CC3)ccc2C(=O)NS(=O)(=O)c2ccc(NCC3CCOCC3)c([N+](=O)[O-])c2)c1` [Example 105, 4-(4-((4′-chloro-1,1′-biphenyl-2-yl)methyl)piperazin-1-yl)-2-(3-(2-(dimethylamino)-2-oxoethoxy)phenoxy)-N-((3-nitro-4-((tetrahydro-2H-pyran-4-ylmethyl)amino)phenyl)sulfonyl)benzamide] the pKi [1] was 8.45.

With `CN1CCN(CCCNc2ccc(S(=O)(=O)NC(=O)c3ccc(N4CCN(CC5=C(c6ccc(Cl)cc6)CC(C)(C)CC5)CC4)cc3Oc3cccc(Cl)c3)cc2[N+](=O)[O-])CC1` [Example 143, 2-(3-chlorophenoxy)-4-(4-{[2-(4-chlorophenyl)-4,4-dimethylcyclohex-1-en-1-yl]methyl}piperazin-1-yl)-N-[(4-{[3-(4-methylpiperazin-1-yl)propyl]amino}-3-nitrophenyl)sulfonyl]benzamide] the pKi [1] was 10.28.

In the case of `O=C(NS(=O)(=O)c1ccc(NCCCN2CCOCC2)c([N+](=O)[O-])c1)c1ccc(N2CCN(Cc3ccccc3-c3ccc(Cl)cc3)CC2)cc1Oc1ccc(OCc2ccccc2)cc1` [Example 96, 2-(4-(benzyloxy)phenoxy)-4-(4-((4′-chloro-1,1′-biphenyl-2-yl)methyl)piperazin-1-yl)-N-((4-((3-morpholin-4-ylpropyl)amino)-3-nitrophenyl)sulfonyl)benzamide], the pKi [1] was < 5.92.

`CC(=O)Nc1ccc(Oc2cc(N3CCN(Cc4ccccc4-c4ccc(Cl)cc4)CC3)ccc2C(=O)NS(=O)(=O)c2ccc(NCC3CCOCC3)c([N+](=O)[O-])c2)cc1` [Example 82, 2-(4-(acetylamino)phenoxy)-4-(4-((4′-chloro-1,1′-biphenyl-2-yl)methyl)piperazin-1-yl)-N-((3-nitro-4-((tetrahydro-2H-pyran-4-ylmethyl)amino)phenyl)sulfonyl)benzamide] was tested, and the pKi [1] was 6.29.

With `CC1(C)CCC(CN2CCN(c3ccc(C(=O)NS(=O)(=O)c4ccc(NC5CCN(C6CCOCC6)CC5)c([N+](=O)[O-])c4)c(Oc4cccc(Cl)c4)c3)CC2)=C(c2ccc(Cl)cc2)C1` [Example 127, 2-(3-chlorophenoxy)-4-(4-{[2-(4-chlorophenyl)-4,4-dimethylcyclohex-1-en-1-yl]methyl}piperazin-1-yl)-N-({3-nitro-4-[(1-tetrahydro-2H-pyran-4-ylpiperidin-4-yl)amino]phenyl}sulfonyl)benzamide] the pKi [1] was 10.52.

`CN1CC[C@H](Nc2ccc(S(=O)(=O)NC(=O)c3ccc(N4CCN(CC5=C(c6ccc(Cl)cc6)CC(C)(C)CC5)CC4)cc3Oc3cccc(Cl)c3)cc2[N+](=O)[O-])C1` [Example 194, 2-(3-chlorophenoxy)-4-(4-{[2-(4-chlorophenyl)-4,4-dimethylcyclohex-1-en-1-yl]methyl}piperazin-1-yl)-N-[(4-{[(3S)-1-methylpyrrolidin-3-yl]amino}-3-nitrophenyl)sulfonyl]benzamide] gave a pKi [1] of 9.50.

With `CC(C)N1CCC(Nc2ccc(S(=O)(=O)NC(=O)c3ccc(N4CCN(CC5=C(c6ccc(Cl)cc6)CC(C)(C)CC5)CC4)cc3Oc3cccc(Cl)c3)cc2[N+](=O)[O-])CC1` [Example 175, 2-(3-chlorophenoxy)-4-(4-{[2-(4-chlorophenyl)-4,4-dimethylcyclohex-1-en-1-yl]methyl}piperazin-1-yl)-N-({4-[(1-isopropylpiperidin-4-yl)amino]-3-nitrophenyl}sulfonyl)benzamide] the pKi [1] was 10.34.

`CN1CC[C@@H](Nc2ccc(S(=O)(=O)NC(=O)c3ccc(N4CCN(CC5=C(c6ccc(Cl)cc6)CC(C)(C)CC5)CC4)cc3Oc3cccc(Cl)c3)cc2[N+](=O)[O-])C1` [Example 195, 2-(3-chlorophenoxy)-4-(4-{[2-(4-chlorophenyl)-4,4-dimethylcyclohex-1-en-1-yl]methyl}piperazin-1-yl)-N-[(4-{[(3R)-1-methylpyrrolidin-3-yl]amino}-3-nitrophenyl)sulfonyl]benzamide] showed a pKi [1] of 9.16.

`CN1CCN(Nc2ccc(S(=O)(=O)NC(=O)c3ccc(N4CCN(CC5=C(c6ccc(Cl)cc6)CC(C)(C)CC5)CC4)cc3Oc3cccc4c3CC(=O)N4)cc2[N+](=O)[O-])CC1` [Example 287, 4-(4-{[2-(4-chlorophenyl)-4,4-dimethylcyclohex-1-en-1-yl]methyl}piperazin-1-yl)-N-({4-[(4-methylpiperazin-1-yl)amino]-3-nitrophenyl}sulfonyl)-2-[(2-oxo-2,3-dihydro-1H-indol-4-yl)oxy]benzamide] was tested, and the pKi [1] was 9.88.

`CC1(C)CC(c2ccc(Cl)cc2)=C(CN2CCN(c3ccc(C(=O)NS(=O)(=O)c4cnc(OCC5(F)CCOCC5)c(Cl)c4)c(Oc4cc5cc[nH]c5cc4F)c3)CC2)CO1` [Example 388, N-({5-chloro-6-[(4-fluorotetrahydro-2H-pyran-4-yl)methoxy]pyridin-3-yl}sulfonyl)-4-(4-{[4-(4-chlorophenyl)-6,6-dimethyl-5,6-dihydro-2H-pyran-3-yl]methyl}piperazin-1-yl)-2-[(6-fluoro-1H-indol-5-yl)oxy]benzamide] was tested, and the pKi [1] was 10.70.

For `COCOc1cccc(Oc2cc(N3CCN(CC4=C(c5ccc(Cl)cc5)CC(C)(C)CC4)CC3)ccc2C(=O)NS(=O)(=O)c2ccc(NC3CCN(C)CC3)c([N+](=O)[O-])c2)c1C` [Example 158, 4-(4-{[2-(4-chlorophenyl)-4,4-dimethylcyclohex-1-en-1-yl]methyl}piperazin-1-yl)-2-[3-(methoxymethoxy)-2-methylphenoxy]-N-({4-[(1-methylpiperidin-4-yl)amino]-3-nitrophenyl}sulfonyl)benzamide], the pKi [1] was 9.21.

Molecule `CN1CCC(Nc2ccc(S(=O)(=O)NC(=O)c3ccc(N4CCN(CC5=C(c6ccc(Cl)cc6)CC(C)(C)CC5)CC4)cc3Oc3ccc(F)cc3)cc2[N+](=O)[O-])CC1` [Example 118, 4-(4-{[2-(4-chlorophenyl)-4,4-dimethylcyclohex-1-en-1-yl]methyl}piperazin-1-yl)-2-(4-fluorophenoxy)-N-({4-[(1-methylpiperidin-4-yl)amino]-3-nitrophenyl}sulfonyl)benzamide] has a pKi [1] of 9.82.

`CC1(C)CCC(CN2CCN(c3ccc(C(=O)NS(=O)(=O)c4cnc(OCC5(F)CCOCC5)c(C#N)c4)c(Oc4cc5cc[nH]c5cc4F)c3)CC2)=C(c2ccc(Cl)cc2)C1` [Example 308, 4-(4-{[2-(4-chlorophenyl)-4,4-dimethylcyclohex-1-en-1-yl]methyl}piperazin-1-yl)-N-({5-cyano-6-[(4-fluorotetrahydro-2H-pyran-4-yl)methoxy]pyridin-3-yl}sulfonyl)-2-[(6-fluoro-1H-indol-5-yl)oxy]benzamide] gave a pKi [1] of 10.40.

`CC1(C)CCC(CN2CCN(c3ccc(C(=O)NS(=O)(=O)c4ccc(NCC5CCOCC5)c([N+](=O)[O-])c4)c(Oc4ccnc(NC(=O)OC(C)(C)C)c4)c3)CC2)=C(c2ccc(Cl)cc2)C1` [Example 280, tert-butyl 4-(5-(4-{[2-(4-chlorophenyl)-4,4-dimethylcyclohex-1-en-1-yl]methyl}piperazin-1-yl)-2-{[({3-nitro-4-[(tetrahydro-2H-pyran-4-ylmethyl)amino]phenyl}sulfonyl)amino]carbonyl}phenoxy)pyridin-2-ylcarbamate] showed a pKi [1] of 8.12.
